Tests used:
Assay type in all cases: biochemical
[1] = target: T1, SGK2 (Homo sapiens, UniProt Q9HBY8); assay: mobility shift assay
T1 construct: purchased Carna Biosciences

[2] = target: T2, FM8 (Homo sapiens, UniProt P07333); assay: mobility shift assay
T2 construct: purchased Carna Biosciences

[3] = target: T3, PDGFRβ (Homo sapiens, UniProt P09619); assay: mobility shift assay
T3 construct: purchased Carna Biosciences

[4] = target: T4, YES(T348I) (Homo sapiens, UniProt P07947, T348I); assay: mobility shift assay
T4 construct: purchased Carna Biosciences

[5] = target: T5, Etk2 (Homo sapiens, UniProt P28482); assay: mobility shift assay
T5 construct: purchased Carna Biosciences

[6] = target: T6, EPHA8 (Homo sapiens, UniProt P29322); assay: mobility shift assay
T6 construct: purchased Carna Biosciences

[7] = target: T7, TAK1-TAB1_Cascade (Homo sapiens, UniProt O43318); assay: mobility shift assay
T7 construct: purchased Carna Biosciences

[8] = target: T8, FYN(isoform b) (Homo sapiens, UniProt P06241); assay: mobility shift assay
T8 construct: purchased Carna Biosciences

[9] = target: T9, PHKG1 (Homo sapiens, UniProt Q16816); assay: mobility shift assay
T9 construct: purchased Carna Biosciences

[10] = target: T10, KIT(D816V) (Homo sapiens, UniProt P10721, D816V); assay: mobility shift assay
T10 construct: purchased Carna Biosciences

[11] = target: T11, p70S6K (Homo sapiens, UniProt P23443); assay: mobility shift assay
T11 construct: purchased Carna Biosciences

[12] = target: T12, PASK (Homo sapiens, UniProt Q96RG2); assay: mobility shift assay
T12 construct: purchased Carna Biosciences

[13] = target: T13, CLK2 (Homo sapiens, UniProt P49760); assay: mobility shift assay
T13 construct: purchased Carna Biosciences
T13 sequence (P49760 whole entry): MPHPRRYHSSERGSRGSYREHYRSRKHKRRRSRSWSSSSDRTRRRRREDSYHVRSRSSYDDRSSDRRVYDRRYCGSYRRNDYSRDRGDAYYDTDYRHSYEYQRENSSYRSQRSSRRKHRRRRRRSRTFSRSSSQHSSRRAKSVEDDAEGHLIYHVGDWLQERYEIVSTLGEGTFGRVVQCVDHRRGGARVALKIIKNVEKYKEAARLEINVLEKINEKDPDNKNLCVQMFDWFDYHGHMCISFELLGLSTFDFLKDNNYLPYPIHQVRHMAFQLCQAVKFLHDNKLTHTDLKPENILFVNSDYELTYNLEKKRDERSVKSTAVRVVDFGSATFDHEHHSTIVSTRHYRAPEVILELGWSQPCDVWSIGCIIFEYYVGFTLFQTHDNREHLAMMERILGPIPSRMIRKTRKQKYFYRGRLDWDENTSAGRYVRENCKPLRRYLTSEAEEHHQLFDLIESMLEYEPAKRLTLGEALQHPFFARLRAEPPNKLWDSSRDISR

[14] = target: T14, LYNb (Homo sapiens, UniProt P07948); assay: mobility shift assay
T14 construct: purchased Carna Biosciences

[15] = target: T15, PDGFRα(T674I) (Homo sapiens, UniProt P16234, T674I); assay: mobility shift assay
T15 construct: purchased Carna Biosciences

[16] = target: T16, CDK9/CvcT1 (Homo sapiens, UniProt P50750); assay: mobility shift assay
T16 construct: purchased Carna Biosciences
T16 sequence (P50750 whole entry): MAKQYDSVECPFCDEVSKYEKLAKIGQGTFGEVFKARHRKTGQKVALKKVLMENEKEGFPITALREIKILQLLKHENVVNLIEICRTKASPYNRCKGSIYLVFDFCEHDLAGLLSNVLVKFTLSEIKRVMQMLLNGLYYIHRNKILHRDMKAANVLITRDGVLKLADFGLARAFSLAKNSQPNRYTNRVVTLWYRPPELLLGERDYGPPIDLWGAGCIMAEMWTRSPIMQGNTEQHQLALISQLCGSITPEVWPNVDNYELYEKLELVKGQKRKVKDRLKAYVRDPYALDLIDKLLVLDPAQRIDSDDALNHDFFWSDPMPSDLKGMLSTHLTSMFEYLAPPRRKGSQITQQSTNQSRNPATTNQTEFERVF
T16 sequence (O60563 whole entry partner): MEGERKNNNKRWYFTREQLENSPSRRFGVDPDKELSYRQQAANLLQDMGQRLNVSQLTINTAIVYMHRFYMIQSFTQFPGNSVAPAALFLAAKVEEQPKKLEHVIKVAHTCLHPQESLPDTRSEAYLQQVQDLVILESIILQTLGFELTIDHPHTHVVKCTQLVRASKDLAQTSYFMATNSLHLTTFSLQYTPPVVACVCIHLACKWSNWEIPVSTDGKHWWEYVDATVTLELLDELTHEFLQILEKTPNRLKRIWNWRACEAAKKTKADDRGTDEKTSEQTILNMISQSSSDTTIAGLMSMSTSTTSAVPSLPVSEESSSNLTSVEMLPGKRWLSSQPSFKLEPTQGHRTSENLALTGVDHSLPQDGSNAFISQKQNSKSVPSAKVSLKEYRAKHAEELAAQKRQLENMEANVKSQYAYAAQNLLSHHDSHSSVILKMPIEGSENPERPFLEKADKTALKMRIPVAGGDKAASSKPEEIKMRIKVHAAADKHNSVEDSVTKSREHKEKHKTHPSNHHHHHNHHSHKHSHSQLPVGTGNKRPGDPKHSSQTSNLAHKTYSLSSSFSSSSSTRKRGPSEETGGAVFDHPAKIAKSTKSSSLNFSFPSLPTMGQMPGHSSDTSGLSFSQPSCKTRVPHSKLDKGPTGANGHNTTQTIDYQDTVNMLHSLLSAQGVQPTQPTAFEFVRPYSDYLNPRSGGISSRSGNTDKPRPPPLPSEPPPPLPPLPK

[17] = target: T17, FGFR4(V550E) (Homo sapiens, UniProt P22455, V550E); assay: mobility shift assay
T17 construct: purchased Carna Biosciences

[18] = target: T18, PKR (Homo sapiens, UniProt P19525); assay: IMAP Assay
T18 construct: purchased Carna Biosciences

[19] = target: T19, IRR (Homo sapiens, UniProt P14616); assay: mobility shift assay
T19 construct: purchased Carna Biosciences

[20] = target: T20, SLK (Homo sapiens, UniProt Q9H2G2); assay: mobility shift assay
T20 construct: purchased Carna Biosciences
T20 sequence (Q9H2G2 whole entry): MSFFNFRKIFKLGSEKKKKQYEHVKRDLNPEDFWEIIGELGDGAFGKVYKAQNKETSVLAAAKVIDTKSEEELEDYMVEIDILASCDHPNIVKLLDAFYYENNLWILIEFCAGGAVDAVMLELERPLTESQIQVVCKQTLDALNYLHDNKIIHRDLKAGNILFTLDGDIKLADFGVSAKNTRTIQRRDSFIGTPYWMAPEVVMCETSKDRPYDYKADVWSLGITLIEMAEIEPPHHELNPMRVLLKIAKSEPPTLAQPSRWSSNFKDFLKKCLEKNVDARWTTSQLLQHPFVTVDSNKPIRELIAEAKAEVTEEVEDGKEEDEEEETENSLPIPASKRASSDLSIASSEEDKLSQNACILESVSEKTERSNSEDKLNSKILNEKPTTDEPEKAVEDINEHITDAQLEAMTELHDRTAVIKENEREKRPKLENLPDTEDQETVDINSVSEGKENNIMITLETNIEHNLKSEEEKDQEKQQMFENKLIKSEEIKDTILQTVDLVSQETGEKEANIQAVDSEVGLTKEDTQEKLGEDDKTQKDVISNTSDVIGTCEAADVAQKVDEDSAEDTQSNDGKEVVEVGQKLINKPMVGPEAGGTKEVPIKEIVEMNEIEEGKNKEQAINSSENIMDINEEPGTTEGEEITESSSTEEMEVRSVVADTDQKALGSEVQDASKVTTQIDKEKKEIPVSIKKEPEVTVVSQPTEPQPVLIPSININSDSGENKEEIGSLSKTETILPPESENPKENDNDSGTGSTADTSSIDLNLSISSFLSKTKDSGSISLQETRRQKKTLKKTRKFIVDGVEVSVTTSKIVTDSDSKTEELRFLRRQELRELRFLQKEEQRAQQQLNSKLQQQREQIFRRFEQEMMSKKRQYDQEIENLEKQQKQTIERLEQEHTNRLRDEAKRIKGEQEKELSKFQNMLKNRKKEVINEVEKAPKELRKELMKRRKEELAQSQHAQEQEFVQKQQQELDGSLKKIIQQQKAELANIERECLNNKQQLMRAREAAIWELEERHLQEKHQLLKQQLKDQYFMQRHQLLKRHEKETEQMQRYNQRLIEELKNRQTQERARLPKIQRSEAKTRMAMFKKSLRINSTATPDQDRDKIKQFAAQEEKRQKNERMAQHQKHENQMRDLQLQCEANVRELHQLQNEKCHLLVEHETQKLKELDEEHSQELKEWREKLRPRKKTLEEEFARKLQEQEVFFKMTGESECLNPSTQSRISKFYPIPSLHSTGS

[21] = target: T21, CHK2 (Homo sapiens, UniProt O96017); assay: mobility shift assay
T21 construct: purchased Carna Biosciences

[22] = target: T22, PIM 3 (Homo sapiens, UniProt Q86V86); assay: mobility shift assay
T22 construct: purchased Carna Biosciences

[23] = target: T23, SRPK2 (Homo sapiens, UniProt P78362); assay: mobility shift assay
T23 construct: purchased Carna Biosciences

[24] = target: T24, OK1δ (Homo sapiens, UniProt P48730); assay: mobility shift assay
T24 construct: purchased Carna Biosciences

[25] = target: T25, MLK2_Cascade (Homo sapiens, UniProt Q02779); assay: mobility shift assay
T25 construct: purchased Carna Biosciences

[26] = target: T26, RET(M918T) (Homo sapiens, UniProt P07949, M918T); assay: mobility shift assay
T26 construct: purchased Carna Biosciences

[27] = target: T27, CaMK1δ (Homo sapiens, UniProt Q8IU85); assay: mobility shift assay
T27 construct: purchased Carna Biosciences

[28] = target: PIK3CA/PIK3R1 (Homo sapiens, UniProt P42336); assay: mobility shift assay; design: purchased Carna Biosciences
Experimental: LG-1 (liphgal) at 10 μM was assessed for its inhibitory activity against 313 kinds of kinases by mobility shift assay or IMAP Assay™ (Carna Biosciences). Specifically, the assessment was performed by the IMAP Assay™ (Carna Biosciences) for SPRK1, PLK2, PKR, PKN1, PEK, IRAK1, and EKKα among the 313 kinds of kinases, and the assessment was performed by the mobility shift assay for all the other kinases. Inhibitory activity (% inhibition) against each kinase is represented by the size of a bubble on a protein kinase phylogenetic tree of FIG. 2.

[29] = target: T28, MARK4 (Homo sapiens, UniProt Q96L34); assay: mobility shift assay
T28 construct: purchased Carna Biosciences

[30] = target: T29, CK1y3 (Homo sapiens, UniProt Q9Y6M4); assay: mobility shift assay
T29 construct: purchased Carna Biosciences
T29 sequence (Q9Y6M4 whole entry): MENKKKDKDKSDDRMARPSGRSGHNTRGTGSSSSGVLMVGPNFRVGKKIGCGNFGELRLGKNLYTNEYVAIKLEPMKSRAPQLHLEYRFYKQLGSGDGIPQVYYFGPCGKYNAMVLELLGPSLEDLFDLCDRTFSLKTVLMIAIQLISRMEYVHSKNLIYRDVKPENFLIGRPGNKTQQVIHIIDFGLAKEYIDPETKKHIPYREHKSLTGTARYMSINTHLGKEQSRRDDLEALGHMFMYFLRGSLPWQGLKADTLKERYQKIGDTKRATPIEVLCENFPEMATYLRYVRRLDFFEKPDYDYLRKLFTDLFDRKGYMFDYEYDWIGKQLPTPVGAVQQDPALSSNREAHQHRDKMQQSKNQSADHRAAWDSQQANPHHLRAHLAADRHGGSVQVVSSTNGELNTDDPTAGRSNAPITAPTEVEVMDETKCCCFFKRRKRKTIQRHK

[31] = target: T30, EPHA2 (Homo sapiens, UniProt P29317); assay: mobility shift assay
T30 construct: purchased Carna Biosciences

[32] = target: T31, RSK1 (Homo sapiens, UniProt Q15418); assay: mobility shift assay
T31 construct: purchased Carna Biosciences
T31 sequence (Q15418 whole entry): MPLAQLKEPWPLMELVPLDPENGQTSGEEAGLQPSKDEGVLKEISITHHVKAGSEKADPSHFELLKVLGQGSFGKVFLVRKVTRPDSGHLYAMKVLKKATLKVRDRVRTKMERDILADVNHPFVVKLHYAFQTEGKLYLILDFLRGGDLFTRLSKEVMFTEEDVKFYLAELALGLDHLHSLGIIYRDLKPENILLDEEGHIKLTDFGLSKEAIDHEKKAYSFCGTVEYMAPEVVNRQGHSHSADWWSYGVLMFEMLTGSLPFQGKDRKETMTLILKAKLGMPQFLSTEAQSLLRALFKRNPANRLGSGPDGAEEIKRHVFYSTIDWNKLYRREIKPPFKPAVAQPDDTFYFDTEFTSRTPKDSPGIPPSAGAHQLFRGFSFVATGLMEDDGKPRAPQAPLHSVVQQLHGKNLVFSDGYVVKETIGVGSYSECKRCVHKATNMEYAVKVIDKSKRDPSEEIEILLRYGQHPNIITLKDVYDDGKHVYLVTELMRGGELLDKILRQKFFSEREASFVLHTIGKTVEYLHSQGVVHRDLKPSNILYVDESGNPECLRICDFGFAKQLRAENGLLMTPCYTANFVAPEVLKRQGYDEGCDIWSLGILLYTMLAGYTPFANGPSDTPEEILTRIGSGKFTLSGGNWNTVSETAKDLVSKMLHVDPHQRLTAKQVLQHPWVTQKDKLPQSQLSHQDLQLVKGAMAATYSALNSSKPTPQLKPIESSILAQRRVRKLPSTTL

[33] = target: T32, ROCK2 (Homo sapiens, UniProt O75116); assay: mobility shift assay
T32 construct: purchased Carna Biosciences

[34] = target: T33, LOK (Homo sapiens, UniProt O94804); assay: mobility shift assay
T33 construct: purchased Carna Biosciences
T33 sequence (O94804 whole entry): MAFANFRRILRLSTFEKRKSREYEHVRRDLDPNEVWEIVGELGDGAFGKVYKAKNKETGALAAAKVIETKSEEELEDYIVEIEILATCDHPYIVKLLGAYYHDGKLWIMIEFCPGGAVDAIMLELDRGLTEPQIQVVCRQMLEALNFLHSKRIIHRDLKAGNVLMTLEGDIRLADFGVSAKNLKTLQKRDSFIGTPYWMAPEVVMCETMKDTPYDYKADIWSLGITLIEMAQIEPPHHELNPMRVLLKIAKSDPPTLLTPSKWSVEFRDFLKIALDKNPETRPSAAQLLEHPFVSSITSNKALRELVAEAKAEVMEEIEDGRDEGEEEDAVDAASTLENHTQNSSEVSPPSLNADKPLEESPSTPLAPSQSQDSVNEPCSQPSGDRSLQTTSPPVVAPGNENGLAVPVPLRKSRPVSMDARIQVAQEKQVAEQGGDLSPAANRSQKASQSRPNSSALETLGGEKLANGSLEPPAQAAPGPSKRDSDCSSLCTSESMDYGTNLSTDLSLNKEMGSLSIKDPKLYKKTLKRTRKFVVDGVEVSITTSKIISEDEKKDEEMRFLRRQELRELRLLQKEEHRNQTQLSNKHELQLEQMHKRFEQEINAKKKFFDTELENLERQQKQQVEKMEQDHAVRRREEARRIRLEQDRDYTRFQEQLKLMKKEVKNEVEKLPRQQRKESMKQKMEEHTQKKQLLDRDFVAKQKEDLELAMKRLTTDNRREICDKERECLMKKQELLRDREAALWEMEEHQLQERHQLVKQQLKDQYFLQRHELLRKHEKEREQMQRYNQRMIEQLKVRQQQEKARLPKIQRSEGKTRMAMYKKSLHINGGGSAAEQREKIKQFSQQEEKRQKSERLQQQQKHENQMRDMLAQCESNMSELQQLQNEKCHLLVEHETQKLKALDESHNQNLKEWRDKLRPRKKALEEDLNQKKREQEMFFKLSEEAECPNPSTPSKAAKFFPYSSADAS

[35] = target: T34, NEK6 (Homo sapiens, UniProt Q9HC98); assay: mobility shift assay
T34 construct: purchased Carna Biosciences

[36] = target: T35, PLK2 (Homo sapiens, UniProt Q9NYY3); assay: IMAP Assay
T35 construct: purchased Carna Biosciences

[37] = target: T36, RET(Y791F) (Homo sapiens, UniProt P07949, Y791F); assay: mobility shift assay
T36 construct: purchased Carna Biosciences

[38] = target: T37, PKCε (Homo sapiens, UniProt Q02156); assay: mobility shift assay
T37 construct: purchased Carna Biosciences

C[C@@H]1CC[C@H]2C(C)(C)CCC[C@]2(C)c2c1oc1c(C=O)c(O)c(O)cc21 [LG-1, liphagal]
inhibition at 10 µM [1]: 9.3% | inhibition at 10 µM [2]: 12.5% | inhibition at 10 µM [3]: -3.4% | inhibition at 10 µM [4]: 3.7% | inhibition at 10 µM [5]: 6.2% | inhibition at 10 µM [6]: 0.8% | inhibition at 10 µM [7]: 13.9% | inhibition at 10 µM [8]: 3.1% | inhibition at 10 µM [9]: 21.7% | inhibition at 10 µM [10]: 13% | inhibition at 10 µM [11]: 15.9% | inhibition at 10 µM [12]: 17.4% | inhibition at 10 µM [13]: -25.5% | inhibition at 10 µM [14]: 2.8% | inhibition at 10 µM [15]: 29.2% | inhibition at 10 µM [16]: 18.8% | inhibition at 10 µM [17]: 2.4% | inhibition at 10 µM [18]: 13.8% | inhibition at 10 µM [19]: 23.1% | inhibition at 10 µM [20]: 10.5% | inhibition at 10 µM [21]: 26.5% | inhibition at 10 µM [22]: 28.9% | inhibition at 10 µM [23]: 9.7% | inhibition at 10 µM [24]: 4.1% | inhibition at 10 µM [25]: 8.3% | inhibition at 10 µM [26]: 5.9% | inhibition at 10 µM [27]: 57.7% | inhibition at 10 µM [28]: 83.4% | inhibition at 10 µM [29]: -3.8% | inhibition at 10 µM [30]: 3% | inhibition at 10 µM [31]: 2.6% | inhibition at 10 µM [32]: 34.3% | inhibition at 10 µM [33]: 2% | inhibition at 10 µM [34]: 15.8% | inhibition at 10 µM [35]: 65.4% | inhibition at 10 µM [36]: 19.7% | inhibition at 10 µM [37]: 9.9% | inhibition at 10 µM [38]: -46.9%

From patent US11691980B2, “Liphagal analog and multi-targeted kinase inhibitor containing liphagal or analog thereof” (TOHOKU UNIVERSITY, priority 2017, dated 2023)
